# Laboratory results as given in patent US20240158446A1, “CYCLIC COMPOUND HAVING SELECTIVE INHIBITORY ACTION ON KRAS OVER HRAS AND NRAS” (CHUGAI SEIYAKU KABUSHIKI KAISHA, priority 2021, published 2024).
# Like-named read-outs stand apart in the source and are kept apart here. Where a SMILES comes first, the peptide text is derived from it. Bridges are numbered along the chain shown (N, C = ends). [ ]: non-standard residue; d: D form. The star is where a group is joined. hPhe(3-Cl-4-CF3) = N[C@@H](CCc1ccc(C(F)(F)F)c(Cl)c1)C(=O)O; NPrPhe(4-CF3) = CCCN[C@@H](Cc1ccc(C(F)(F)F)cc1)C(=O)O; NMeGly(cPent) = CN[C@H](C(=O)O)C1CCCC1; NMeD = CN[C@@H](CC(=O)O)C(=O)O; NMeL = CN[C@@H](CC(C)C)C(=O)O; Pyrrolidide = C1CCN(*)C1; Ac5c = NC1(C(=O)O)CCCC1; Sar = CNCC(=O)O
# Legend:
# [1] = target: GDP-bound HRAS wild-type protein (Homo sapiens, UniProt P01112); experiment: Binding to HRAS by surface plasmon resonance (SPR), Single Cycle Kinetics; conditions: for HRAS/KRAS (ratio of KD value for HRAS to KD value for KRAS): GDP-bound HRAS wild-type protein vs GDP-bound KRAS wild-type protein
# Sequence of GDP-bound HRAS wild-type protein (P01112 whole entry): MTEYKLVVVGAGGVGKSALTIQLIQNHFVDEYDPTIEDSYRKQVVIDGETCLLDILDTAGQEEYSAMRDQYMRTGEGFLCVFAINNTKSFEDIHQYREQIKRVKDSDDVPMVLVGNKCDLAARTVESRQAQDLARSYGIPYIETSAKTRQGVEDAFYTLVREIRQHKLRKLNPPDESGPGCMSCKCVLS
# [2] = system: human lung cancer strain NCI-H441;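 further: cell proliferation inhibition after four days measured by CellTiter-Glo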
# [3] = target: GDP-bound NRAS wild-type protein (Homo sapiens, UniProt P01111); experiment: Binding to NRAS by surface plasmon resonance (SPR), Single Cycle Kinetics; conditions: for NRAS/KRAS (ratio of KD value for NRAS to KD value for KRAS): GDP-bound NRAS wild-type protein vs GDP-bound KRAS wild-type protein
# Sequence of GDP-bound NRAS wild-type protein (P01111 whole entry): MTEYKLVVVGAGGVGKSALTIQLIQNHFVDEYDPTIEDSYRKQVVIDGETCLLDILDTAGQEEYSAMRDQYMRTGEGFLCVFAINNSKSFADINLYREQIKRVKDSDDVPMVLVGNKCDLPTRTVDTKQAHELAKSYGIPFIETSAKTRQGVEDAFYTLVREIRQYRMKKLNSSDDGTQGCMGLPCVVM
# [4] = target: GDP-bound KRAS wild-type protein (Homo sapiens, UniProt P01116); experiment: Binding to KRAS by surface plasmon resonance (SPR), Single Cycle Kinetics; conditions: GDP-bound KRAS wild-type protein, read-out: KRAS KD
# Sequence of GDP-bound KRAS wild-type protein (P01116 whole entry): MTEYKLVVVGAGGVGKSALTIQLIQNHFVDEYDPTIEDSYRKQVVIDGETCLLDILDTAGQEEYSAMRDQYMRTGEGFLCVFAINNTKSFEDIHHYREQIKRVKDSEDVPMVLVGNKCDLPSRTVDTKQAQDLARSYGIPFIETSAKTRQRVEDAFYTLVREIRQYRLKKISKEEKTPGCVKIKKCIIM
# [5] = SPR, Single Cycle Kinetics, 1:1 binding model
# [6] = SPR Single Cycle Kinetics, 1:1 binding model
Structure (SMILES),IC50 [2] [nM],"Kd ([4]; SPR, Single Cycle Kinetics) [nM]","Kd [4, 5] [nM]",HRAS/KRAS (ratio of KD value for HRAS to KD value for KRAS) ([1]; SPR),NRAS/KRAS (ratio of KD value for NRAS to KD value for KRAS) ([3]; SPR),"HRAS/KRAS (ratio of KD value for HRAS to KD value for KRAS) ([1]; SPR, KD ratio class)","NRAS/KRAS (ratio of KD value for NRAS to KD value for KRAS) ([3]; SPR, KD ratio class)",other results
CC[C@H](C)[C@@H]1NC(=O)[C@@H]2CCCc3ccc(cc3)C[C@@H](C(=O)N(C)CC(=O)N[C@@H](CCc3ccc(C(F)(F)F)c(OC)c3)C(=O)N3C[C@H](OC4CCCC4)C[C@H]3C(=O)NC3(CC(C)(C)C3)C(=O)N(C)[C@@H](C3CCCC3)C(=O)N(C)[C@H](C(=O)N(C)CC)CC(=O)N2C)N2CC/C=C\C[C@@H](C2=O)N(C)C(=O)CN(C)C1=O [PP3086],–,0.2,–,B (a compound having 3 or more and less than 10 is denoted as B),B (a compound having 3 or more and less than 10 is denoted as B),–,–,"ratio of the KD value with respect to GDP-bound HRAS wild-type protein to the KD value with respect to KRAS ([1]; SPR, KD(HRAS)/KD(KRAS)): B (a compound having 3 or more and less than 10 is denoted as B); IC50 ([2]; read-out: NCI-H441 cell proliferation inhibitory activity, 50% proliferation inhibitory concentration (IC50 value), NCI-H441, four days, CellTiter-Glo): 7.9 nM; ratio of the KD value with respect to GDP-bound NRAS wild-type protein to the KD value with respect to KRAS ([3]; SPR, KD(NRAS)/KD(KRAS)): B (a compound having 3 or more and less than 10 is denoted as B)"
CCOC[C@H]1C(=O)N[C@@H]([C@@H](C)CC)C(=O)N(C)CC(=O)N(C)[C@H]2C/C=C\CCN(C2=O)[C@@H](Cc2ccc(C)cc2)C(=O)N(C)CC(=O)N[C@@H](CCc2ccc(C(F)(F)F)c(OC)c2)C(=O)N2C[C@H](OCC)C[C@H]2C(=O)NC2(CC(C)(C)C2)C(=O)N(C)[C@@H](C2CCCC2)C(=O)N(C)[C@H](C(=O)N(CC)CC)CC(=O)N1C [PP2406],21.3,0.29,–,A (a compound having 10 or more and less than 20 is denoted as A),A (a compound having 10 or more and less than 20 is denoted as A),–,–,–
CCCN1C(=O)CN(C)C(=O)CN(C)C(=O)[C@H]([C@@H](C)CC)NC(=O)[C@H](CC(C)C)N(C)C(=O)C[C@@H](C(=O)N2CCCC2)N(C)C(=O)[C@H](C2CCCC2)N(C)C(=O)C2(CCCC2)NC(=O)[C@@H]2CCCN2C(=O)[C@H](CCc2ccc(C(F)(F)F)c(Cl)c2)NC(=O)CN(C)C(=O)[C@@H]1Cc1ccc(C(F)(F)F)cc1 [PP0170] ([NMeL]I[Sar][Sar][NPrPhe(4-CF3)][Sar][hPhe(3-Cl-4-CF3)]P[Ac5c][NMeGly(cPent)][NMeD]-Pyrrolidide; lactam N-11),5.2,–,–,B (a compound having 3 or more and less than 10 is denoted as B),B (a compound having 3 or more and less than 10 is denoted as B),–,–,"Kd [4, 6]: 0.12 nM"
CC[C@H](C)[C@@H]1NC(=O)[C@H](CC2CCC2)N(C)C(=O)C[C@@H](C(=O)N(C)C)N(C)C(=O)[C@H](C2CCCC2)N(C)C(=O)C2(CCCC2)NC(=O)[C@@H]2CCCN2C(=O)[C@H](CCc2cc(F)c(C(F)(F)F)c(F)c2)NC(=O)CN(C)C(=O)[C@H](Cc2ccc(C(F)(F)F)cc2)N2C[C@H](C)CC[C@@H](C2=O)N(C)C(=O)CN(C)C1=O [PP1386],4.2,–,0.082,–,–,B (a compound having 3 or more and less than 10 is denoted as B),B (a compound having 3 or more and less than 10 is denoted as B),–
CCO[C@@H]1C[C@H]2C(=O)NC3(CCC3)C(=O)N(C)[C@@H](C(CC)CC)C(=O)N(C)[C@H](C(=O)N(C)C)CC(=O)N(C)[C@@H](CC3CC3)C(=O)N[C@@H]([C@@H](C)CC)C(=O)N(C)CC(=O)N(C)[C@H]3C/C=C\CCN(C3=O)[C@@H](CC3CCCCC3)C(=O)N(C)CC(=O)N[C@@H](CCc3cc(F)c(C(F)(F)F)c(F)c3)C(=O)N2C1 [PP1428],38.8,–,0.87,–,–,A (a compound having 10 or more and less than 20 is denoted as A),AA (a compound having 20 or more is denoted as AA),–
CCO[C@@H]1C[C@H]2C(=O)NC3(CC(C)(C)C3)C(=O)N(C)[C@@H](C(CC)CC)C(=O)N(C)[C@H](C(=O)N(C)C)CC(=O)N(C)[C@@H](C(C)C)C(=O)N[C@@H]([C@@H](C)CC)C(=O)N(C)CC(=O)N(C)[C@H]3C/C=C\CCN(C3=O)[C@@H](CC3CCC(F)(F)CC3)C(=O)N(C)CC(=O)N[C@@H](CCc3cc(F)c(C(F)(F)F)c(F)c3)C(=O)N2C1 [PP2481],33.6,1.6,–,A (a compound having 10 or more and less than 20 is denoted as A),A (a compound having 10 or more and less than 20 is denoted as A),–,–,–

# More lines, main results first:
IC50 [2] [nM],"Kd ([4]; SPR, Single Cycle Kinetics) [nM]","Kd [4, 5] [nM]",Structure (SMILES),HRAS/KRAS (ratio of KD value for HRAS to KD value for KRAS) ([1]; SPR),NRAS/KRAS (ratio of KD value for NRAS to KD value for KRAS) ([3]; SPR),"HRAS/KRAS (ratio of KD value for HRAS to KD value for KRAS) ([1]; SPR, KD ratio class)","NRAS/KRAS (ratio of KD value for NRAS to KD value for KRAS) ([3]; SPR, KD ratio class)",other results
21.3,0.079,–,CCO[C@@H]1C[C@H]2C(=O)NC3(CC(C)(C)C3)C(=O)N(C)[C@@H](C3CCCC3)C(=O)N(C)[C@H](C(=O)N(C)C)CC(=O)N(C)[C@@H](COC)C(=O)N[C@@H]([C@@H](C)CC)C(=O)N(C)CC(=O)N(C)[C@H]3C/C=C\CCN(C3=O)[C@@H](Cc3ccc(C)cc3)C(=O)N(C)CC(=O)N[C@@H](CCc3ccc(C(F)(F)F)c(Cl)c3)C(=O)N2C1 [PP2389],B (a compound having 3 or more and less than 10 is denoted as B),A (a compound having 10 or more and less than 20 is denoted as A),–,–,–
34.5,–,0.24,CCO[C@@H]1C[C@H]2C(=O)NC3(CCC3)C(=O)N(C)[C@@H](C3CCCC3)C(=O)N(C)[C@H](C(=O)N(C)CCOC)CC(=O)N(C)[C@@H](CC3CC3)C(=O)N[C@@H]([C@@H](C)CC)C(=O)N(C)CC(=O)N(C)[C@H]3C/C=C\CCN(C3=O)[C@@H](Cc3ccc(C(F)(F)F)cc3)C(=O)N(C)CC(=O)N[C@@H](CCc3ccc(Cl)c(Cl)c3)C(=O)N2C1 [PP1329],–,–,A (a compound having 10 or more and less than 20 is denoted as A),AA (a compound having 20 or more is denoted as AA),–
18.9,–,0.23,CCO[C@@H]1C[C@H]2C(=O)NC3(CCC3)C(=O)N(C)[C@@H](C3CCCC3)C(=O)N(C)[C@H](C(=O)N(C)C)CC(=O)N(C)[C@@H](CC(C)C)C(=O)N[C@@H]([C@@H](C)CC)C(=O)N(C)CC(=O)N(C)[C@H]3C/C=C\CCN(C3=O)[C@@H](Cc3ccc(C(F)(F)F)cc3)C(=O)N(C)CC(=O)N[C@@H](CCc3cc(F)c(Cl)c(F)c3)C(=O)N2C1 [PP1263],–,–,A (a compound having 10 or more and less than 20 is denoted as A),A (a compound having 10 or more and less than 20 is denoted as A),–
14.8,0.096,–,CCO[C@@H]1C[C@H]2C(=O)NC3(CCC3)C(=O)N(C)[C@@H](C3CCCC3)C(=O)N(C)[C@H](C(=O)N(C)C)CC(=O)N(C)[C@@H](Cc3cccs3)C(=O)N[C@@H]([C@@H](C)CC)C(=O)N(C)CC(=O)N(C)[C@H]3CCCCCN(C3=O)[C@@H](Cc3ccc(F)cc3)C(=O)N(C)CC(=O)N[C@@H](CCc3cc(F)c(C(F)(F)F)c(F)c3)C(=O)N2C1 [PP1197],B (a compound having 3 or more and less than 10 is denoted as B),B (a compound having 3 or more and less than 10 is denoted as B),–,–,–
8.9,–,–,CCC[C@H]1C(=O)N[C@@H]([C@@H](C)CC)C(=O)N(C2CC2)CC(=O)N(C)[C@H]2C/C=C\CCN(C2=O)[C@@H](Cc2ccc(C)cc2)C(=O)N(C)CC(=O)N[C@@H](CCc2cc(F)c(C(F)(F)F)c(F)c2)C(=O)N2C[C@H](OC(C)C)C[C@H]2C(=O)NC2(CC(C)(C)C2)C(=O)N(C)[C@@H](C2CCCC2)C(=O)N(C)[C@H](C(=O)N(C)C)CC(=O)N1C [PP2570],–,–,–,–,"HRAS/KRAS (ratio of KD value with respect to GDP-bound HRAS wild-type protein to KD value with respect to KRAS) ([1]; SPR KD ratio HRAS/KRAS, class symbols): A (a compound having 10 or more and less than 20 is denoted as A); NRAS/KRAS (ratio of KD value with respect to GDP-bound NRAS wild-type protein to KD value with respect to KRAS) ([3]; SPR KD ratio NRAS/KRAS, class symbols): A (a compound having 10 or more and less than 20 is denoted as A); Kd [4, 6]: 0.39 nM"
3,–,0.073,CCO[C@@H]1C[C@H]2C(=O)NC3(CC(C)(C)C3)C(=O)N(C)[C@@H](C3CCCC3)C(=O)N(C)[C@H](C(=O)N(C)C)CC(=O)N(C)[C@@H](CC3CCC3)C(=O)N[C@@H]([C@@H](C)CC)C(=O)N(C)CC(=O)N(C)[C@H]3C/C=C\CCN(C3=O)[C@@H](Cc3ccc(C(F)(F)F)cc3)C(=O)N(C)CC(=O)N[C@@H](CCc3ccc(C(F)(F)F)c(OC)c3)C(=O)N2C1 [PP1564],–,–,A (a compound having 10 or more and less than 20 is denoted as A),A (a compound having 10 or more and less than 20 is denoted as A),–
